Where two headings read alike, the source gives them in different places.
How the values were obtained:
[1] = system: amastigotes of T. cruzi (Tulahuen C2C4 LacZ strain); experiment: Trypanocidal activity against T. cruzi amastigotes (CPRG, infected LLC-MK2); format: cell-based, Trypanosoma cruzi
[2] = Cytotoxicity against LLC-MK2 cells (MTT); format: cell-based; settings: rhesus monkey
Procedure: (§1) Mammalian lineage cells were used to assess the cytotoxicity of the tested compounds. LLC-MK2, HEK-293, and RAW-264 cells (ATCC) were cultured in Dulbecco’s Modified Eagle’s Medium (DMEM) supplemented with 5% fetal bovine serum (FBS) and incubated at 37 °C in 5% CO2, with passages every 4–5 days. Cells were detached from the monolayer using a solution containing 0.25% w/v trypsin and 0.04% EDTA.
In a flat 96-well plate, a suspension of 1 × 10^4 LLC-MK2 cells (ATCC) in DMEM supplemented with 2% FBS was added. Cells were incubated at 37 °C (5% CO2) for 20 h, then washed with phosphate-buffered saline (PBS) to remove nonadherent cells. Cells were treated with serial dilutions (200–2 μM) of compounds in triplicate, prediluted in DMEM with 2% FBS. Untreated, vehicle (0.2% v/v DMSO), and blank (no cells added) controls were included. After 120 h of incubation, the supernatant was removed, the cell monolayer washed with PBS, and the culture medium refreshed. Then, 20 μL of a 3.0 mM MTT salt solution was added, followed by two additional hours of incubation. The supernatant was removed again, and the MTT formazan crystals were dissolved by adding 120 μL of DMSO per well. After 1.5 h of dark incubation at 37 °C to dissolve the crystals, the absorbance was measured at 570 nm using a plate reader.

[3] = system: amastigotes of T. cruzi (Tulahuen C2C4 LacZ strain); experiment: Trypanocidal activity against T. cruzi amastigotes (CPRG, infected LLC-MK2); format: cell-based, Trypanosoma cruzi; settings: intracellular amastigotes in LLC-MK2, 120 h; for IC50: Trypanosoma cruzi, TULAHUEN, read-out: Activity against Amastigotes of T. cruzi (Tulahuen C2C4lacZ) IC50
Procedure: The antiparasitic activity assays used amastigotes of the Tulahuen C2C4-LacZ strain of T. cruzi. Amastigotes and trypomastigotes were cultured by successive reinfections in LLC-MK2 cell monolayers in DMEM supplemented with 5% FBS and incubated at 37 °C with 5% CO2. Trypomastigotes were collected from the culture supernatant between days 5 and 10 after infection and separated from nonadhered cells by differential centrifugation.
In a flat 96-well plate, a suspension of 1 × 10^4 LLC-MK2 cells (ATCC) in DMEM supplemented with 2% FBS was added. Cells were incubated at 37 °C with 5% CO2 for 4 h to promote adhesion, then washed with PBS to remove nonadherent cells. A suspension containing 1.5 × 10^5 T. cruzi trypomastigote forms of the Tulahuen C2C4 LacZ strain was added to the cells, followed by incubation at 37 °C with 5% CO2 for 20 h to establish infection. Noninternalized parasites were removed with three successive PBS washes, then treatment with serial dilutions (50–0.08 μM) of compounds in triplicate, prediluted in DMEM with 2% FBS. Controls included untreated cells, vehicle (0.2% v/v DMSO), and blank (no parasite added). Benznidazole, in serial dilutions, served as a positive control. After 5 days (120 h), 30 μL of a 0.5 mM CPRG solution in PBS was added along with 0.9% v/v Igepal CA-630. After a 2h incubation, absorbance was measured at 570 nm using a plate reader.

Chagas disease = settings: chronic phase of Chagas disease; cited from earlier work
HEK-293 cells = experiment: Cytotoxicity against HEK-293 cells (MTT); format: cell-based
Procedure: as §1
In a 96-well transparent plate, a suspension of 1 × 10^4 HEK-293 cells (ATCC) in DMEM medium supplemented with 10% FBS was added. Cells were incubated at 37 °C (5% CO2) for 20 h and then washed with PBS to remove nonadherent cells. The cells were treated with serial dilutions of the hybrids in triplicate (125–0.2 μM), prediluted in DMEM containing 10% FBS. The experiment included untreated controls, vehicle (0.2% v/v DMSO), and a blank (no added cells). […] Then, 20 μL of 3.0 mM MTT saline was added, followed by an additional 1.5 h of incubation. The supernatant was removed, and the MTT formazan crystals were dissolved by adding 120 μL of DMSO per well. After incubating for 1.5 h in the dark at 37 °C, the absorbance was measured at 570 nm using a plate reader.

RAW-264.7 cells = experiment: Cytotoxicity against RAW-264.7 cells (MTT); format: cell-based
Procedure: as §1
In a 96-well transparent plate, a suspension of 1 × 10^4 RAW-264.7 cells (ATCC) in Roswell Park Memorial Institute (RPMI) medium supplemented with 10% FBS was added. Cells were incubated at 37 °C (5% CO2) for 20 h, then washed with PBS to remove nonadherent cells. Cells were treated with serial dilutions of the hybrids in triplicate (125–0.2 μM), prediluted in RPMI supplemented with 10% FBS. Controls included untreated samples, vehicle (0.2% v/v DMSO), and blank wells (no cells). […] Then, 20 μL of 3.0 mM MTT saline was added, followed by an additional 1.5 h of incubation. The supernatant was removed again, and the MTT formazan crystals were dissolved by adding 120 μL of DMSO per well. After incubating for 1.5 h in the dark at 37 °C to dissolve the crystals, absorbance was measured at 570 nm using a plate reader.

[4] = system: bloodstream trypomastigotes of T. b. brucei; experiment: Trypanocidal activity against T. brucei brucei bloodstream (MTS); format: cell-based, Trypanosoma brucei brucei
Procedure: In a transparent 96-well plate, the parasites were incubated for 48 h at a concentration of 5 × 10^4 parasites per well, for 24 h, a concentration of 10 × 10^5 parasites per well was used in Hirumi’s Modified Iscove’s (HMI-9) medium supplemented with 10% FBS and a final 100 μL/well volume. Treatment was carried out using serial dilutions of the compounds (100–0.02 μM) and fexinidazole as the reference drug, both in triplicate. Triplicates of untreated parasites (live control), parasites treated with DMSO 0.2% v/v (vehicle), and wells without parasites (blank control) served as experimental controls. After incubation, 20 μL of MTS solution (5% PMS) was added, and the sample was incubated for another 2 h. Once the plate was visibly stained–due to the soluble formazan salt produced by the action of viable parasites from the reduction of MTS–the absorbance was measured at 490 nm using a plate reader.

[5] = Homo sapiens, HEK293, 48 h, read-out: HEK-293 48 h IC50
[6] = Mus musculus, RAW264.7, 48 h, read-out: RAW-264.7 48 h IC50
[7] = Trypanosoma brucei, 48 h, read-out: T. b. brucei 48 h IC50
[8] = Homo sapiens, HEK293, 48 h; read-out: HEK-293 48 h IC50
[9] = Mus musculus, RAW264.7, 48 h; read-out: RAW-264.7 48 h IC50
[10] = Trypanosoma brucei, 48 h; read-out: T. b. brucei 48 h IC50

In the case of `O=[N+]([O-])c1ncc[nH]1` [Azomycin (3), 2-nitro-1H-imidazole, reference compound], the “SI (LLC-MK2) = (IC50 LLC-MK2)/(IC50 T. cruzi)” value (from here on “SI (LLC-MK2) =”) [1] is reported as >87.10, the IC50 at 120 h [2] is reported as > 500 µM and the IC50 [3] is reported as 5.74 ± 1.89 µM.

In the case of `O=C(Cn1ccnc1[N+](=O)[O-])NCc1ccccc1` [Benznidazole, benznidazole, reference compound], the cure rate (Chagas disease) is given as “less than 20%”, the “SI (LLC-MK2) =” value [1] is given as >133.33 and the IC50 at 120 h ([2]; LLC-MK2 cells) is given as > 200 µM. It also gave an IC50 [3] of 1.5 ± 0.33 µM.

With `O=[N+]([O-])c1nccn1CCn1ccnc1[N+](=O)[O-]` [Compound 4, 1,2-Bis(2-nitro-1H-imidazol-1-yl)ethane] the IC50 (HEK-293 cells; [5]) was > 125 µM, the “SI (LLC-MK2) =” value [1] was >21.90 and the IC50 at 120 h [2] was > 200 µM. For the same molecule, the IC50 (RAW-264.7 cells; [6]) was > 125 µM, the “SI (HEK-293) = (IC50 HEK-293)/(IC50 T. brucei brucei)” value (“SI (HEK-293) =” for short) [4] was >5.83 and the “SI (RAW-264.7) = (IC50 RAW-264.7)/(IC50 T. brucei brucei)” value (“SI (RAW-264.7) =” for short) [4] was >5.83. The IC50 [4, 7] was 21.4 ± 1.15 µM and the IC50 [3] was 9.13 ± 0.93 µM.

With `O=[N+]([O-])c1nccn1CCCn1ccnc1[N+](=O)[O-]` [Compound 5, 1,3-Bis(2-nitro-1H-imidazol-1-yl)propane] the IC50 (HEK-293 cells; [5]) was > 125 µM, the “SI (LLC-MK2) =” value [1] was >62.50 and the IC50 at 120 h [2] was > 200 µM. For the same molecule, the IC50 (RAW-264.7 cells; [6]) was > 125 µM, the IC50 [4, 7] was 16.4 ± 2.65 µM and the IC50 [3] was 3.2 ± 0.58 µM.

For `O=[N+]([O-])c1nccn1CCCCn1ccnc1[N+](=O)[O-]` [Compound 6, 1,4-Bis(2-nitro-1H-imidazol-1-yl)butane], the IC50 (HEK-293 cells; [8]) was > 125 µM, the “SI (LLC-MK2) =” value [1] was >75.18 and the IC50 at 120 h [2] was > 200 µM. The IC50 (RAW-264.7 cells; [9]) was > 125 µM, the “SI (HEK-293) =” value [4] was >5.02 and the “SI (RAW-264.7) =” value [4] was >5.02. For the same molecule, the IC50 [4, 10] was 24.9 ± 7.89 µM and the IC50 [3] was 2.66 ± 0.78 µM.

For `O=[N+]([O-])c1nccn1CCCCCn1ccnc1[N+](=O)[O-]` [Compound 7, 1,5-Bis(2-nitro-1H-imidazol-1-yl)pentane], the IC50 (HEK-293 cells; [8]) was > 125 µM, the “SI (LLC-MK2) =” value [1] was >144.9 and the IC50 at 120 h [2] was > 200 µM. For the same molecule, the IC50 (RAW-264.7 cells; [9]) was > 125 µM, the “SI (HEK-293) =” value [4] was >12.42 and the “SI (RAW-264.7) =” value [4] was >12.42. For the same molecule, the IC50 [4, 10] was 10.1 ± 2.47 µM and the IC50 [3] was 1.38 ± 0.24 µM.

With `O=[N+]([O-])c1nccn1CCCCCCn1ccnc1[N+](=O)[O-]` [Compound 8, 1,6-Bis(2-nitro-1H-imidazol-1-yl)hexane] the IC50 (HEK-293 cells; [8]) was 87.4 ± 1.2 µM, the “SI (LLC-MK2) =” value [1] was >338.98 and the IC50 at 120 h [2] was > 200 µM. For the same molecule, the IC50 (RAW-264.7 cells; [9]) was > 125 µM, the “SI (HEK-293) =” value [4] was 16.27 and the “SI (RAW-264.7) =” value [4] was >23.27. For the same molecule, the IC50 [4, 10] was 5.37 ± 3.15 µM, the IC50 [3] was 0.59 ± 0.01 µM and the “Activity against Amastigotes of T. cruzi (Tulahuen C2C4lacZ) IC50” value (shortened to “Activity against Amastigotes of T. cruzi”) [3] was “submicromolar range”.

With `O=[N+]([O-])c1nccn1CCCCCCCCn1ccnc1[N+](=O)[O-]` [Compound 9, 1,8-Bis(2-nitro-1H-imidazol-1-yl)octane] the IC50 (HEK-293 cells; [8]) was 22.3 ± 1.08 µM, the “SI (LLC-MK2) =” value [1] was >84.03 and the IC50 at 120 h [2] was > 100 µM. The IC50 (RAW-264.7 cells; [9]) was 71.7 ± 3.67 µM, the “SI (HEK-293) =” value [4] was 2.79 and the “SI (RAW-264.7) =” value [4] was 8.98. For the same molecule, the IC50 [4, 10] was 7.98 ± 3.12 µM and the IC50 [3] was 1.19 ± 0.31 µM.

For `O=[N+]([O-])c1nccn1CCCCCCCCCCn1ccnc1[N+](=O)[O-]` [Compound 10, 1,10-Bis(2-nitro-1H-imidazol-1-yl)decane], the IC50 (HEK-293 cells; [8]) was 35.1 ± 5.31 µM, the “SI (LLC-MK2) =” value [1] was >208.33 and the IC50 at 120 h [2] was > 100 µM. The IC50 (RAW-264.7 cells; [9]) was 98.4 ± 9.39 µM, the “SI (HEK-293) =” value [4] was 1.67 and the “SI (RAW-264.7) =” value [4] was 4.67. The IC50 [4, 10] was 21 ± 1.9 µM, the IC50 [3] was 0.48 ± 0.11 µM and the “Activity against Amastigotes of T. cruzi” value [3] was “submicromolar range”.

For `O=[N+]([O-])c1nccn1CCCCCCCCCCCCn1ccnc1[N+](=O)[O-]` [Compound 11, 1,12-Bis(2-nitro-1H-imidazol-1-yl)dodecane], the IC50 (HEK-293 cells; [8]) was 102 ± 8.54 µM, the “SI (LLC-MK2) =” value [1] was 85.88 and the IC50 at 120 h [2] was 52.4 ± 4.13 µM. For the same molecule, the IC50 (RAW-264.7 cells; [9]) was > 125 µM, the “SI (HEK-293) =” value [4] was 57.01 and the “SI (RAW-264.7) =” value [4] was >69.83. The IC50 [4, 10] was 1.79 ± 0.63 µM, the IC50 [3] was 0.61 ± 0.13 µM and the “Activity against Amastigotes of T. cruzi” value [3] was “submicromolar range”.

In the case of `CSc1ccc(OCc2ncc([N+](=O)[O-])n2C)cc1` [Fexinidazole, fexinidazole, reference compound], the IC50 [4, 10] is reported as 1.2 ± 0.51 µM.

In the case of `CC1CS(=O)(=O)CCN1/N=C/c1ccc([N+](=O)[O-])o1` (centres unmarked) [nifurtimox], the cure rate (Chagas disease) is given as “less than 20%”.

Reference: paper PMC12809571, “Contribution to the Chemotherapy of Human Trypanosomiasis: Design, Synthesis, and Biological Evaluation of Dimeric 2‑Nitroimidazoles against Trypanosoma cruzi Amastigotes and Bloodstream Trypanosoma brucei” (ACS Omega, 2025)
